From patent publication US20240366652A1, “OSTEOARTHRITIS PROGRESSION INHIBITOR AND PROGRESSION INHIBITION KIT” (KYUSHU UNIVERSITY, NATIONAL UNIVERSITY CORPORATION, priority 2021, published 2024)

Key:
ADAMTS4 = ADAMTS4 mRNA expression in LPS-stimulated human OA cartilage cells (quantitative real-time PCR); type: cell-based; conditions: Amlexanox 100 μM and/or hyaluronic acid 1 mg/mL, 48 hours, LPS 10 μg/mL 6 hours, GAPDH internal standard
Procedure: (§1) Human cartilage cells were isolated and cultured from an excised cartilage fragment that is usually discarded after artificial knee joint replacement surgery. All donors provided consent to participate in the clinical research approved by the Ethics Review Committee. Due consideration was given to personal information of all donors in handling. Donor's knee joints were OA grade (Kellgren-lawrence) III to IV on X-rays.
(§2) Amlexanox (concentration in medium: 100 μM) and hyaluronic acid (concentration in medium: 1 mg/mL, weight-average molecular weight: 500,000 or more and 1,490,000 or less) were added to human OA cartilage cells and incubated for 48 hours. As a control, those that had been incubated for 48 hours without any administration, and those that were administered with Amlexanox (concentration in medium: 100 μM) and hyaluronic acid (concentration in medium: 1 mg/mL, weight-average molecular weight: 500,000 or more and 1,490,000 or less) and incubated for 48 hours were also prepared.
(§3) Human OA cartilage cells into which Amlexanox and hyaluronic acid were added were stimulated with lipopolysaccharide (LPS) (concentration in medium: 10 μg/mL) and incubated for 6 hours. Thereafter, mRNA was recovered from the above cells. After reverse transcription, quantitative real-time PCR was performed using LightCycler 2.0 system (Roche). GAPDH was used as an internal standard.

MMP13 = MMP13 mRNA expression in LPS-stimulated human OA cartilage cells (quantitative real-time PCR); type: cell-based; conditions: Amlexanox 100 μM and/or hyaluronic acid 1 mg/mL, 48 hours, LPS 10 μg/mL 6 hours, GAPDH internal standard
Procedure: as §1, §2, §3

[1] = tested on: OA-induced mice (DMM model); test: Cartilage degeneration in OA-induced mice (DMM model), OARSI histopathological score after intraarticular administration; type: in vivo; conditions: intraarticular 10 μL every 5 days for 8 weeks, Amlexanox 100 μM, hyaluronic acid 10 mg/mL, versus physiological saline group, 8 weeks after surgery
Procedure: OA was induced in 12-week-old male mice (wild type mice and GRK5KO mouse) by removing the ligament, which connects and secures the medial meniscus to the tibia, to cause the knee joint instability (DMM model) (hereinafter, referred to as a “DMM group” in some cases). In addition, as a control, mice subjected to a sham operation by the same method without removing the ligament were also prepared (hereinafter, referred to as a “sham group” in some cases). Subsequently, immediately after the OA induction, four groups were classified as follows: a group administered with physiological saline (10 μL) every 5 days for 8 weeks; a group administered with a hyaluronic acid solution (10 mg/mL, 10 μL); a group administered with an Amlexanox solution (100 μM, 10 μL), a group administered with a mixed solution (10 μL) of
Amlexanox (100 μM) and hyaluronic acid (10 mg/mL) (see FIG. 2A). Knee joint tissue sections of each group at a time point of 8 weeks after OA induction surgery were stained with safranin O. The results are shown in FIG. 2B (staining image).
In addition, the severity degree of OA was quantified by evaluating the stained sections based on histopathological grade recommended by OARSI.
Using the same method as in Example 2, a mixed solution of Amlexanox (100 μM) and hyaluronic acid (10 mg/mL) was administered to OA-induced mice every […] for 8 weeks (see FIG. 3A). […]

GRK5 = conditions: reported in Reference 2; cited from earlier work
IL6 = IL6 mRNA expression in LPS-stimulated human OA cartilage cells (quantitative real-time PCR); type: cell-based; conditions: Amlexanox 100 μM and/or hyaluronic acid 1 mg/mL, 48 hours, LPS 10 μg/mL 6 hours, GAPDH internal standard
Procedure: as §1, §2, §3

[2] = after intraarticular administration; cited from earlier work

CC(C)c1ccc2oc3nc(N)c(C(=O)O)cc3c(=O)c2c1 [Amlexanox, 2-amino-7-isopropyl-5-oxo-5H-[1]benzopyrano [2,3-b]-pyridine-3-carboxylic acid]
ADAMTS4 expression, control ratio (ADAMTS4): 42.04%
MMP13 expression, control ratio (MMP13): 43.83%
OARSI score, control group ratio [1]: 56.95%
GRK5 inhibition (selectivity, in words) (GRK5): selectively inhibits GRK5
IL6 expression, control ratio (IL6): 32.99%
half-life in joint fluid / in the joint [2]: several hours
